Assay results published in patent US20150045610A1, “METHOD OF MODIFYING SPERMATOGENESIS, SPERMIOGENESIS AND/OR FERTILITY IN MAMMALS” (Monell Chemical Senses Center, priority 2012, published 2015).

Target: T1, humanized mhT1R3 (Homo sapiens, UniProt Q7RTX0, A109T/A120V/A176D/A197V/A198V/A228S/A231N/A248T/A280V/A282S/A302S/A412V/A417V/A46T/A537T/C375D/D124S/D249S/D250G/D364H/D419E/D470T/D491G/D88A/DEL352-352/DEL488-489/E172D/E199T/E203N/E217D/E356N/E45S/E481Q/E505D/E525K/E545Q/F540P/F555L/G168S/G205S/G311T/G314N/G355L/G360D/G414H/G438R/G439D/G463S/G50T/G542N/H261R/H278R/H281Y/H332P/I485M/I536F/INS376MLQNLSSG/K32Q/K339E/K422L/K494V/K86G/L173R/L245Q/L272V/L29F/L354S/L385Q/L433M/L458M/L483S/L71F/L74M/M151L/M315I/M318V/M31A/N285S/N386L/N532H/N68L/P112S/P246H/P335S/P416H/P420H/P441T/P60I/Q221E/Q257L/Q317R/Q330L/Q336H/Q359L/Q372R/Q418S/Q504K/Q531K/R123Q/R247D/R252Q/R291G/R30K/R357A/R443Q/R467V/R473T/R479Q/R482Q/R486Y/R498Q/R52N/R550K/R553A/R556P/R560K/R56Q/S251Q/S267K/S289H/S290H/S392A/S446A/S447E/S464P/S477T/S490P/S53Q/S559P/S58N/S67P/T195Q/T346A/T377L/T390I/T434S/T480L/T63N/V152I/V277A/V366M/V36I/V381L/V393T/V437A/V465T/V61P/W72L)
T1 construct: the extracellular domain is of mouse origin and the transmembrane and intracellular domains of human origin; mouse T1R3 extracellular domain (fusion partner replacing the human extracellular domain); expressed in transfected cells; host or cells: transgenic mice (Line 7, 9, 7c) on T1R3-null background; transgene under 13 kb T1R3 promoter, followed by IRES-eGFP
T1 sequence (Q7RTX0 with tags, fused parts or gaps L29F/R30K/M31A/K32Q/V36I/E45S/A46T/G50T/R52N/S53Q/R56Q/S58N/P60I/V61P/T63N/S67P/N68L/L71F/W72L/L74M/K86G/D88A/A109T/P112S/A120V/R123Q/D124S/M151L/V152I/G168S/E172D/L173R/A176D/T195Q/A197V/A198V/E199T/E203N/G205S/E217D/Q221E/A228S/A231N/L245Q/P246H/R247D/A248T/D249S/D250G/S251Q/R252Q/Q257L/H261R/S267K/L272V/V277A/H278R/A280V/H281Y/A282S/N285S/S289H/S290H/R291G/A302S/G311T/G314N/M315I/Q317R/M318V/Q330L/H332P/P335S/Q336H/K339E/T346A/DEL352-352/L354S/G355L/E356N/R357A/Q359L/G360D/D364H/V366M/Q372R/C375D/INS376MLQNLSSG/T377L/V381L/L385Q/N386L/T390I/S392A/V393T/A412V/G414H/P416H/A417V/Q418S/D419E/P420H/K422L/L433M/T434S/V437A/G438R/G439D/P441T/R443Q/S446A/S447E/L458M/G463S/S464P/V465T/R467V/D470T/R473T/S477T/R479Q/T480L/E481Q/R482Q/L483S/I485M/R486Y/DEL488-489/S490P/D491G/K494V/R498Q/Q504K/E505D/E525K/Q531K/N532H/I536F/A537T/F540P/G542N/E545Q/R550K/R553A/F555L/R556P/S559P/R560K limits assumed): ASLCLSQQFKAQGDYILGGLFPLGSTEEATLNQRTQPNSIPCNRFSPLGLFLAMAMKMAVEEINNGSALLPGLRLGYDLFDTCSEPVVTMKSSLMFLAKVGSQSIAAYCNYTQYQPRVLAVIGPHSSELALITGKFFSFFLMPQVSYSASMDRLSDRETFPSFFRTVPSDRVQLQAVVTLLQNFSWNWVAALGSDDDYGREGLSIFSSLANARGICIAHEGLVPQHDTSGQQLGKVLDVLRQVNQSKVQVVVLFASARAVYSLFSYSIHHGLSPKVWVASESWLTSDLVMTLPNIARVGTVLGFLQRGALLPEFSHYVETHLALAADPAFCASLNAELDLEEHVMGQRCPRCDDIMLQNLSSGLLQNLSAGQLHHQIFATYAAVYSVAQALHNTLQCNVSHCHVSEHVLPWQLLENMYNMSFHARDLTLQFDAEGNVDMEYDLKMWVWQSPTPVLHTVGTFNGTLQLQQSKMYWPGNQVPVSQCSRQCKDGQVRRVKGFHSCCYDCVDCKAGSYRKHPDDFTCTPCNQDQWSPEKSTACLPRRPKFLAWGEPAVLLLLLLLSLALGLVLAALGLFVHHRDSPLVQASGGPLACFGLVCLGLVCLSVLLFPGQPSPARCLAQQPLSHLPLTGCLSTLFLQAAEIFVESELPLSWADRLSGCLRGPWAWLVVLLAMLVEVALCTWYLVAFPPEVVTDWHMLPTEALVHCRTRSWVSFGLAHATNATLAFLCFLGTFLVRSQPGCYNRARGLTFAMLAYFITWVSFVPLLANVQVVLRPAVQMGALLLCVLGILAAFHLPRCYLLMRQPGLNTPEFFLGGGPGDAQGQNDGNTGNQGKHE
T1 sequence (Q925I4 20-843 partner): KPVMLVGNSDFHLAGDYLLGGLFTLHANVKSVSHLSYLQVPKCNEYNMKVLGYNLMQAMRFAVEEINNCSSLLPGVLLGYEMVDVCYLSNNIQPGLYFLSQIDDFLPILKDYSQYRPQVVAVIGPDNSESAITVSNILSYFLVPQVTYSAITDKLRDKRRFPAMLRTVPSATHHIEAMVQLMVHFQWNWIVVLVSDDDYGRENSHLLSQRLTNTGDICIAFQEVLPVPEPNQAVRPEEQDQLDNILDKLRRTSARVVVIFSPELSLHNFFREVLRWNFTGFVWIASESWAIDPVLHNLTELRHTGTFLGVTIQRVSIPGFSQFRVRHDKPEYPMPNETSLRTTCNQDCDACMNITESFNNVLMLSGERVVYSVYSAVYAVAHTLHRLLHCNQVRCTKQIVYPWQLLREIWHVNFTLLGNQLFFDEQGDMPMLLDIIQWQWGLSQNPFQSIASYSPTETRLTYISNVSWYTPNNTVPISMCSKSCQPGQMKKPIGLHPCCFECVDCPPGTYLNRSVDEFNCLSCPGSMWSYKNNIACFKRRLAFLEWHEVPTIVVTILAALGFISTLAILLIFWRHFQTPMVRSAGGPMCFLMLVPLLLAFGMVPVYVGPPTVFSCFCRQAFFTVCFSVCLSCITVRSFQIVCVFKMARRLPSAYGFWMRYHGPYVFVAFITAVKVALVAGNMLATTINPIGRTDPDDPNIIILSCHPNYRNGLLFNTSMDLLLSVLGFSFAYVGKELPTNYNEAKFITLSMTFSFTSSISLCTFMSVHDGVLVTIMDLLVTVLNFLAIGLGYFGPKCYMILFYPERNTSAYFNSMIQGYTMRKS
Assay: sweet taste preference of transgenic mice expressing humanized T1R3
Format: in vivo, mouse
Method: We used the chimeric mhT1R3 receptor to produce conventional transgenic animals. The DNA construct was injected into a genetically engineered mouse line that lacks endogenous T1R3 (T1R3KO or T1R3-null). […] We call these mice Line7.
For further crosses, we used the line 7 that has fewer copies of the transgene.
Such compounds may be produced normally in organs (e.g. in testis) or chemically synthesized.

SMILES: CC(C)(Oc1ccc(Cl)cc1)C(=O)O [clofibric acid]
- sweet preference of Line 7 mice (1 mM clofibric acid): blocked
- sweet responses of the transgenic animals (lines 7, 9, 7c expressing humanized receptor): completely blocked
